# Test results taken from US7045653B2, “Pharmaceuticals” (Pfizer, Inc., priority 2003, dated 2006).
# Key:
# [1] = target: T1, NEP (EC.3.4.24.11) from human kidney (Homo sapiens, UniProt P08473); assay: IC50 against NEP; format: biochemical
# T1 construct: determined using NEP (EC.3.4.24.11) from human kidney; from tissue; host or cells: human kidney
# Experimental: IC50 values of the compounds of the invention against NEP and ACE were determined using methods described in published patent application EP1097719-A1, paragraphs [0368] to [0376]. The IC50 values presented below were determined using NEP (EC.3.4.24.11) from human kidney.
# [2] = system: patients with essential hypertension; conditions: 24 black patients with essential hypertension; cited from earlier work
# [3] = system: hypertensive rats; conditions: cited from earlier work
# [4] = system: hypertensive patients; conditions: added to the ACE inhibitor lisinopril; 37 hypertensive patients; cited from earlier work
# T1 sequence (P08473 whole entry): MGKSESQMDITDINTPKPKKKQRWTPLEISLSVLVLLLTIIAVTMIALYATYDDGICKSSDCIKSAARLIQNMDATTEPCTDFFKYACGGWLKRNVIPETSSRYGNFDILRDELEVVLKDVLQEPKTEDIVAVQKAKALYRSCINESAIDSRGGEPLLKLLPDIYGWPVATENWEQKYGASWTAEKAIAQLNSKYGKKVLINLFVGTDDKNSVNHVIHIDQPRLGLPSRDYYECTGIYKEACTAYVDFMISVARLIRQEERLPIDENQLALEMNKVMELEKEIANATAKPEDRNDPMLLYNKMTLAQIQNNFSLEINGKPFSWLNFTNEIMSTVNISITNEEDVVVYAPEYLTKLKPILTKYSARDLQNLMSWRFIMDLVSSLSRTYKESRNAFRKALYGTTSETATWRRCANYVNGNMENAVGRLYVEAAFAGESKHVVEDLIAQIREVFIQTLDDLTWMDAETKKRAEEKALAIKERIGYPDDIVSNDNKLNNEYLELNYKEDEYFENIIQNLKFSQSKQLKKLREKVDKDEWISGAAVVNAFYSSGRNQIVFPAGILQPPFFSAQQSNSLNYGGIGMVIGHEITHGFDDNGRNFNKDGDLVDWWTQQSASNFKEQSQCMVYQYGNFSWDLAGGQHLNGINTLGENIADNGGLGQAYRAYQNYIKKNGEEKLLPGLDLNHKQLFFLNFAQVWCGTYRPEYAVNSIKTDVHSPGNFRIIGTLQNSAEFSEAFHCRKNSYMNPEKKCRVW
Compound,IC50 [1] [nM],further results
"COCC[C@H](CC1(C(=O)N[C@@H](CCCc2ccc(Cl)cc2)CC(=O)O)CCCC1)C(=O)O [Example 53, (3S)-3-[({1-[(2S)-2-carboxy-4-methoxybutyl]cyclopentyl}carbonyl)amino]-6-(4-chlorophenyl)hexanoic Acid]",0.7,–
"CCC[C@H](CC1(C(=O)N[C@@H](CCOc2ccc(Cl)cc2)CC(=O)O)CCCC1)C(=O)O [Example 41, (3S)-3-[({1-[(2R)-2-Carboxypentyl]cyclopentyl}carbonyl)amino]-5-(4-chlorophenoxy)pentanoic Acid]",6.3,–
"COCC[C@H](CC1(C(=O)N[C@@H](CCOc2ccc(Cl)cc2)CC(=O)O)CCCC1)C(=O)O [Example 48, (3S)-3-[({1-[(2S)-2-Carboxy-4-methoxybutyl]cyclopentyl}carbonyl)amino]-5-(4-chlorophenoxy)pentanoic Acid]",2.4,–
CC1(C)OCC(COC(=O)C(Cc2ccccc2)N[C@@H](Cc2ccccc2)C(=O)NCCC(=O)O)O1 (some centres unmarked) [SCH34826],–,supine blood pressure [2]: significantly lowered supine blood pressure
"COCC[C@H](CC1(C(=O)N[C@@H](COCc2ccc(Cl)cc2)CC(=O)O)CCCC1)C(=O)O [Example 16, (2S)-2-[(1-{[((1R)-2-Carboxy-1-{[(4-chlorobenzyl)oxy]methyl}ethyl)amino]-carbonyl}cyclopentyl)methyl]-4-methoxybutanoic Acid]",8.2,–
COCCOC[C@H](CC1(C(=O)N[C@H]2CC[C@@H](C(=O)O)CC2)CCCC1)C(=O)O [candoxatrilat],–,systolic blood pressure [3]: lowers systolic blood pressure
"COCC[C@H](CC1(C(=O)N[C@@H](CCCc2ccc(OC)cc2)CC(=O)O)CCCC1)C(=O)O [Example 54, (3S)-3-[({1-[(2S)-2-carboxy-4-methoxybutyl]cyclopentyl}carbonyl)amino]-6-(4-methoxyphenyl)hexanoic Acid]",4.7,–
COCCOC[C@H](CC1(C(=O)N[C@H]2CC[C@@H](C(=O)O)CC2)CCCC1)C(=O)Oc1ccc2c(c1)CCC2 [candoxatril],–,supine and erect blood pressure [4]: marked reduction in both supine and erect blood pressure
